Assay results as given in patent US7273848B2, “Apolipoprotein A-I agonists and their use to treat dyslipidemic disorders” (priority 1997, dated 2007).
Non-standard residues stand in square brackets, D forms with d. Residues, ends and D or L forms follow the SMILES beside them. No end group written: not given here. 1Nal = N[C@@H](Cc1cccc2ccccc12)C(=O)O; Aib = CC(C)(N)C(=O)O

Columns and labels:
[1] = Circular dichroism helicity determination; format: physicochemical; settings: percent helicity; for He (%) TFE: 5 μM peptide, 90% vol TFE; for He (%) TFE / He (%) SUVs: 37° C.; for He (%) free: unbound peptide 5 μM in 5 mM phosphate buffer, pH 7.4, 37° C.; for He (%) SUVs: peptide-SUV complexes (20:1 EPC:Chol., Ri=30 and Ri=50); for He (%) mics: peptide-micelle complexes, Ri=100, 37° C.
Procedure, shortened: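 Far-UV CD (190–260 nm) at 37° C on 5 μM peptide in 5 mM phosphate pH 7.4, free, with EPC:Chol 20:1 SUVs (Ri 30 or 50), lysophosphatidylcholine micelles (Ri 100) or 90% TFE. Spectra converted to molar ellipticity per residue; helicity from 222 nm ellipticity or CONTIN fitting to reference spectra, ±5%.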

[2] = biological target: T1, LCAT (purified from human plasma) (Homo sapiens, UniProt P04180); assay: LCAT activation assay; format: biochemical; settings: LCAT activation as compared with native human ApoA-I (= 100%), equivalent masses
T1 construct: from tissue; host or cells: human plasma
T1 sequence (P04180 25-440): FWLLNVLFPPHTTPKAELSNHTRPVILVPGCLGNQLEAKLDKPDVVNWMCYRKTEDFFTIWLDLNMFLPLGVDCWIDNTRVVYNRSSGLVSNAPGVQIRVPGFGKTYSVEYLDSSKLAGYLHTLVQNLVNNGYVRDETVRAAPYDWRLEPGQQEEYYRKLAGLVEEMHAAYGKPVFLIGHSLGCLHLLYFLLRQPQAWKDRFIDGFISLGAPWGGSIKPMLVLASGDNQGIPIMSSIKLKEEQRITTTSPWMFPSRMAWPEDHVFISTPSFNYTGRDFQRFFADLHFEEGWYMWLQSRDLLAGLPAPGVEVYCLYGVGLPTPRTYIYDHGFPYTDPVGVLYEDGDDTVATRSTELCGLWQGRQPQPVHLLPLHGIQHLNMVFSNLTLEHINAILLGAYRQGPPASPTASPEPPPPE
Procedure, shortened: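 Substrate SUVs of EPC or POPC with 14C-cholesterol (20:1 molar ratio), in 10 mM Tris, 0.14 M NaCl, 1 mM EDTA, pH 7.4, were preincubated with peptide or equal mass of plasma ApoA-I. Reaction started with human plasma LCAT; activation was measured as cholesterol-to-ester conversion relative to ApoA-I (100%).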

| Molecule | He (%) TFE [1] | He (%) free [1] | He (%) SUVs [1] | He (%) mics [1] | ACTIVITY (%) LCAT [2] |
| --- | --- | --- | --- | --- | --- |
| CC(C)C[C@H](NC(=O)[C@H](CCCCN)NC(=O)[C@H](CCC(N)=O)NC(=O)[C@H](CCCCN)NC(=O)[C@H](Cc1cccc2ccccc12)NC(=O)[C@H](C)NC(=O)[C@H](CCC(=O)O)NC(=O)[C@H](CC(C)C)NC(=O)[C@H](CC(C)C)NC(=O)[C@H](CCC(=O)O)NC(=O)[C@H](CC(N)=O)NC(=O)[C@H](CC(C)C)NC(=O)[C@H](CC(C)C)NC(=O)[C@H](CCC(=O)O)NC(=O)[C@H](CCCNC(=N)N)NC(=O)[C@H](Cc1ccccc1)NC(=O)[C@H](CC(C)C)NC(=O)[C@H](CC(=O)O)NC(=O)[C@H](CC(C)C)NC(=O)[C@@H](NC(=O)[C@@H]1CCCN1)C(C)C)C(=O)N[C@@H](CCCCN)C(=O)O [peptide 10, PVLDLFRELLNELLEAZKQKLK] (H-PVLDLFRELLNELLEA[1Nal]KQKLK-OH) | 71% | 60% | 70% | 87% | 79% |
| PVLDEFREKLNEPLEALKQKLK [compound 113] |  | 6% |  | 22% | 0% |
| PVLDLFRELLEELKQKLK [compound 210] | 53% | 20% | 37% | 63% | 46% |
| PVLDLFRELLEELLKALKKKLK [compound 39] | 72% | 66% | 68% | 69% | 25% |
| PLLNELLEALKQKLK [compound 104] | 55% | 21% | 29% | 49% | 1% |
| CC(C)C[C@H](NC(=O)[C@H](C)NC(=O)[C@H](CCC(=O)O)NC(=O)[C@H](CC(C)C)NC(=O)[C@H](CC(C)C)NC(=O)[C@H](CCC(=O)O)NC(=O)[C@H](CC(N)=O)NC(=O)[C@H](CC(C)C)NC(=O)[C@H](CC(C)C)NC(=O)[C@H](CCC(=O)O)NC(=O)[C@H](CCCNC(=N)N)NC(=O)[C@H](Cc1ccccc1)NC(=O)[C@H](CC(C)C)NC(=O)[C@H](CC(=O)O)NC(=O)[C@H](CC(C)C)NC(=O)[C@@H](NC(=O)[C@@H]1CCCN1)C(C)C)C(=O)N[C@@H](CCCCN)C(=O)N[C@@H](CCC(N)=O)C(=O)N[C@@H](CCCCN)C(=O)N[C@@H](CC(C)C)C(=O)N[C@@H](CCCCN)C(=O)O [compound 4] | 94% | 80% | 97% | 95% | 93% |
| CC(C)C[C@H](NC(=O)[C@H](C)NC(=O)[C@H](CC(=O)O)NC(=O)[C@H](CC(C)C)NC(=O)[C@H](CC(C)C)NC(=O)[C@H](CCCNC(=N)N)NC(=O)[C@H](CCC(=O)O)NC(=O)[C@H](CC(C)C)NC(=O)[C@H](CC(C)C)NC(=O)[C@H](CC(N)=O)NC(=O)[C@H](CCC(=O)O)NC(=O)[C@H](Cc1ccccc1)NC(=O)[C@H](CC(C)C)NC(=O)[C@H](CCC(=O)O)NC(=O)[C@H](CC(C)C)NC(=O)[C@@H](NC(=O)[C@H]1CCCN1)C(C)C)C(=O)N[C@@H](CCC(N)=O)C(=O)N[C@@H](CCCCN)C(=O)N[C@@H](CCCCN)C(=O)N[C@@H](CC(C)C)C(=O)N[C@@H](CCCCN)C(=O)O [peptide 144] (H-[dP]VLELFENLLERLLDALQKKLK-OH) | 95% | 89% |  | 88% | 111% |
| CC(C)C[C@H](NC(=O)[C@H](C)NC(=O)[C@H](CCC(=O)O)NC(=O)[C@H](CC(C)C)NC(=O)C(C)(C)NC(=O)[C@H](CCC(=O)O)NC(=O)[C@H](Cc1ccccc1)NC(=O)[C@H](CC(C)C)NC(=O)[C@H](CC(C)C)NC(=O)[C@H](CCC(=O)O)NC(=O)[C@H](CCCNC(=N)N)NC(=O)[C@H](Cc1ccccc1)NC(=O)[C@H](CCC(=O)O)NC(=O)[C@H](CC(=O)O)NC(=O)[C@H](CC(C)C)NC(=O)[C@@H](NC(=O)[C@@H]1CCCN1)C(C)C)C(=O)N[C@@H](CCCCN)C(=O)N[C@@H](CCC(N)=O)C(=O)N[C@@H](CCCCN)C(=O)N[C@@H](CC(C)C)C(=O)N[C@@H](CCCCN)C(=O)O [compound 76, PVLDEFRELLFEXLEALKQKLK] (H-PVLDEFRELLFE[Aib]LEALKQKLK-OH) | 66% | 41% |  | 88% | 9% |
| CC(C)C[C@@H](NC(=O)[C@@H](C)NC(=O)[C@@H](CCC(=O)O)NC(=O)[C@@H](CC(C)C)NC(=O)C(C)(C)NC(=O)[C@@H](CCC(=O)O)NC(=O)[C@@H](CC(N)=O)NC(=O)[C@@H](CC(C)C)NC(=O)[C@@H](CCCCN)NC(=O)[C@@H](CCC(=O)O)NC(=O)[C@@H](CCCNC(=N)N)NC(=O)[C@@H](Cc1ccccc1)NC(=O)[C@@H](CCC(=O)O)NC(=O)[C@@H](CC(=O)O)NC(=O)[C@@H](CC(C)C)NC(=O)[C@H](NC(=O)[C@H]1CCCN1)C(C)C)C(=O)N[C@H](CCCCN)C(=O)N[C@H](CCC(N)=O)C(=O)N[C@H](CCCCN)C(=O)N[C@H](CC(C)C)C(=O)N[C@H](CCCCN)C(=O)O [compound 44, pvldefreklneXlealkqklk] (H-[dP][dV][dL][dD][dE][dF][dR][dE][dK][dL][dN][dE][Aib][dL][dE][dA][dL][dK][dQ][dK][dL][dK]-OH) |  | 20% |  | 86% | 25% |
| PVLDLFRELLNEWLEALKQKLK [compound 54] | 78% | 76% | 84% | 71% | 19% |
| DWLKAFYDKVFEKFKEFF [peptide 245, reference compound] |  | 38% | 70% | 77% | 4% |
| CC(C)C[C@@H](NC(=O)[C@@H](C)NC(=O)[C@@H](CCC(=O)O)NC(=O)[C@@H](CC(C)C)NC(=O)[C@@H](CC(C)C)NC(=O)[C@@H](CCC(=O)O)NC(=O)[C@@H](CCC(N)=O)NC(=O)[C@@H](CC(C)C)NC(=O)[C@@H](CC(C)C)NC(=O)[C@@H](CCC(=O)O)NC(=O)[C@@H](CCCCN)NC(=O)[C@@H](CC(C)C)NC(=O)[C@@H](CC(C)C)NC(=O)[C@@H](CCC(=O)O)NC(=O)[C@@H](CC(C)C)NC(=O)[C@@H](CC(C)C)NC(=O)[C@H]1CCCN1)C(=O)N[C@H](CCCCN)C(=O)N[C@H](CCC(N)=O)C(=O)N[C@H](CCCCN)C(=O)N[C@H](CC(C)C)C(=O)N[C@H](CCCCN)C(=O)O [compound 87, pllellkellqellealkqklk] (H-[dP][dL][dL][dE][dL][dL][dK][dE][dL][dL][dQ][dE][dL][dL][dE][dA][dL][dK][dQ][dK][dL][dK]-OH) | 100% | 100% |  | 100% | 7% |
| CC(C)C[C@H](NC(=O)[C@H](CCCCN)NC(=O)[C@H](CCC(N)=O)NC(=O)[C@H](CCCCN)NC(=O)[C@H](CC(C)C)NC(=O)[C@@H](N)CCCCN)C(=O)N[C@@H](C)C(=O)N[C@@H](CCC(=O)O)C(=O)N[C@@H](CC(C)C)C(=O)N[C@@H](CC(C)C)C(=O)N[C@@H](CCC(=O)O)C(=O)N[C@@H](CC(N)=O)C(=O)N[C@@H](CC(C)C)C(=O)N[C@@H](CC(C)C)C(=O)N[C@@H](CCC(=O)O)C(=O)N[C@@H](CCCNC(=N)N)C(=O)N[C@@H](Cc1ccccc1)C(=O)N[C@@H](CC(C)C)C(=O)N[C@@H](CC(=O)O)C(=O)N[C@@H](CC(C)C)C(=O)N[C@H](C(=O)N1CCC[C@H]1C(=O)O)C(C)C [compound 99] | 80% | 72% | 80% | 88% | 2% |
| PVLDLFRNLLEELLEALQKKLK [compound 66] | 70% | 64% | 66% | 82% | 15% |
| PVLELFENLLERGLDALQKKLK [peptide 154] | 80% | 13% | 25% | 76% | 39% |
| PVLDLFRELLNELLQKLK [compound 209] | 62% | 54% | 67% | 71% | 47% |
| PVLELFENLLERLWDALQKKLK [compound 163] | 55% | 27% |  | 53% | 26% |
| PVLELFENLLERLLDAWQKKLK [compound 164] | 61% | 37% | 51% | 66% | 24% |
| Ac-PVLDLFKELLEELKQKLK-NH2 [compound 192] | 56% | 36% |  |  | 100% |
